Test systems include A549 NSCLC; DMS 114 small cell lung; LOX IMVI melanoma; M19-MEL melanoma; NCI-H460 lung; SF-539 CNS; SK-MEL-28 melanoma; SNB-75 CNS; UACC-257 melanoma; MDA-MB-231 breast.
What all share (assay): NCI-60 cell line screen, 48 h

Molecules are shown by their SMILES. Where “and” joins values, the source holds several entries; their conditions need not be identical. Equal entries are not always repeated.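 Tested at 5 concentrations; 48 h exposure; 96-well plates; endpoints linearly interpolated, else capped at highest concentration. The concentration for 50% growth inhibition is given as GI50. The concentration for full growth arrest is given as TGI.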 Where only a bound is given, the exact number is not on record here.

The source of these data is PubChem BioAssay (NCI).

As to `O=C(CC1C(=O)Nc2ccccc2S1(=O)=O)Nc1cccc(Cl)c1` (centres undefined), the TGI in the experiment on A549 NSCLC amounted to 40.8 µM; in the experiment with DMS 114 small cell lung, 30.6 µM; in the experiment on LOX IMVI melanoma, 28.6 µM; in the experiment with M19-MEL melanoma, 34.8 µM; in the experiment on NCI-H460 lung, 31.8 µM; with SF-539 CNS, 22.8 µM. In addition, the TGI with SK-MEL-28 melanoma came to 38.7 µM; with SNB-75 CNS, 31.8 µM; in the experiment on UACC-257 melanoma, 50 µM.
Regarding `COc1cc2ccc(CC(N)=O)cc2cc1OC`, the TGI in the experiment with A549 NSCLC, with DMS 114 small cell lung, in the experiment with LOX IMVI melanoma, in the experiment on M19-MEL melanoma, in the experiment on SF-539 CNS and in the experiment with SK-MEL-28 melanoma was over 100 µM throughout. Besides, the TGI in the experiment with SNB-75 CNS and in the experiment on UACC-257 melanoma was over 100 µM in each case.
Regarding `Cc1cnc(SCCN2CCN(C)CC2)nc1-c1cc2ccccc2s1`, the TGI was 16 µM with A549 NSCLC; 20.5 µM with DMS 114 small cell lung; 18.6 µM in the experiment with LOX IMVI melanoma; 14.6 µM with NCI-H460 lung; 25.1 µM in the experiment with SF-539 CNS; 32.7 µM with SK-MEL-28 melanoma. The values for the TGI in the experiment on SNB-75 CNS and in the experiment with UACC-257 melanoma were 24.6 µM and 23.5 µM, respectively.
For `COC[C@@H](N=CN1CCc2cc(OC)c(OC)cc2C1)C(C)(C)C`, the TGI in the experiment on A549 NSCLC, in the experiment with DMS 114 small cell lung, in the experiment on M19-MEL melanoma, in the experiment with NCI-H460 lung, in the experiment with SF-539 CNS and in the experiment with SK-MEL-28 melanoma was over 100 µM each time. The TGI in the experiment on SNB-75 CNS and with UACC-257 melanoma was over 100 µM in each case.
As to `C/C=C1\CCC2c3[nH]c4ccccc4c3CCN2C1` (centres undefined), the TGI in the experiment with A549 NSCLC, in the experiment on DMS 114 small cell lung, in the experiment with M19-MEL melanoma, in the experiment on NCI-H460 lung, with SF-539 CNS and with SK-MEL-28 melanoma was over 100 µM throughout. The same molecule showed a TGI with SNB-75 CNS of over 100 µM.
Regarding `CC/C(CC(=O)CCC(=O)Nc1ccc(C)c(C)c1)=N\NC(=O)C(N)=O`, the TGI in the experiment with A549 NSCLC, in the experiment on DMS 114 small cell lung, in the experiment on M19-MEL melanoma, in the experiment with SF-539 CNS, in the experiment on SK-MEL-28 melanoma and with SNB-75 CNS was over 100 µM in each case. In addition, the TGI with UACC-257 melanoma was over 100 µM.
On to `CCN(Cc1cccc(F)c1F)c1ccc(CO)c(Cl)c1`, for which the GI50 is 1.54 µM in the experiment with A549 NSCLC; 15.8 µM in the experiment on LOX IMVI melanoma; 16.1 µM with MDA-MB-231 breast; 0.176 µM in the experiment on NCI-H460 lung; 15.5 µM in the experiment with SF-539 CNS; 14 µM in the experiment with SK-MEL-28 melanoma. The GI50 with SNB-75 CNS was 12.4 µM; in the experiment on UACC-257 melanoma, 0.0896 µM. Further, the TGI is 24.2 µM in the experiment with A549 NSCLC; 30.7 µM with LOX IMVI melanoma; 36.1 µM in the experiment on MDA-MB-231 breast; 11 µM in the experiment on NCI-H460 lung; 30.2 µM in the experiment with SF-539 CNS; 30.1 µM in the experiment on SK-MEL-28 melanoma. Moreover, the TGI with SNB-75 CNS came to 40.5 µM; with UACC-257 melanoma, 0.326 µM.
`O=C(c1ccccc1O)c1[nH]c(Cl)c(Cl)c1-n1c(C(=O)c2ccccc2O)cc(Cl)c1Cl`: the GI50 was 2.69 µM and 1.8 µM in the experiment on A549 NSCLC; 2.72 µM and 2.48 µM with LOX IMVI melanoma; 1.07 µM and 0.354 µM in the experiment with MDA-MB-231 breast; 0.456 µM and 0.427 µM with NCI-H460 lung; 1.67 µM and 1.74 µM in the experiment on SF-539 CNS; 0.844 µM and 0.529 µM with SK-MEL-28 melanoma. The GI50 with SNB-75 CNS was 1.8 µM and 1.58 µM; with UACC-257 melanoma it was 1.58 µM and 1.99 µM. Further, the TGI was 10.9 µM and 14.6 µM in the experiment with A549 NSCLC; 10.6 µM and 10.7 µM in the experiment on LOX IMVI melanoma; 5.87 µM and 2.61 µM with MDA-MB-231 breast; 11.2 µM and 10.2 µM in the experiment on NCI-H460 lung; 10.1 µM and 10.9 µM in the experiment on SF-539 CNS; 12.3 µM and 11.3 µM with SK-MEL-28 melanoma. Besides, the TGI in the experiment on SNB-75 CNS was 10.3 µM and 8.76 µM; with UACC-257 melanoma it was 5.88 µM and 9.95 µM.
Regarding `Cc1cc(O)cc(C)c1/C=C/c1cncc(C(=O)OC(C)(C)C)c1`, the GI50 in the experiment with A549 NSCLC is 9.23 µM; with LOX IMVI melanoma it was 16 µM; in the experiment with MDA-MB-231 breast, 14 µM; in the experiment with NCI-H460 lung it was 13.5 µM; in the experiment with SF-539 CNS, over 18.5 µM; in the experiment with SK-MEL-28 melanoma, 17.9 µM. The GI50 in the experiment with SNB-75 CNS is 4.75 µM; with UACC-257 melanoma, 19.6 µM. Further, the TGI in the experiment on A549 NSCLC, in the experiment on LOX IMVI melanoma, in the experiment on MDA-MB-231 breast, in the experiment with NCI-H460 lung, in the experiment on SF-539 CNS and in the experiment with SK-MEL-28 melanoma was over 25 µM in each case. For the same molecule, the TGI is over 23.9 µM in the experiment with SNB-75 CNS and over 25 µM in the experiment on UACC-257 melanoma.
With `O=Nc1c(O)c2ccccc2c2ccccc12`, the GI50 in the experiment with A549 NSCLC is 1.63 µM; in the experiment on LOX IMVI melanoma, 0.294 µM; in the experiment on MDA-MB-231 breast, 0.849 µM; in the experiment with NCI-H460 lung, 1.06 µM; in the experiment on SF-539 CNS, 0.379 µM; in the experiment with SK-MEL-28 melanoma it was 1.68 µM. Also, the figures for the GI50 with SNB-75 CNS and with UACC-257 melanoma were 1.51 µM and 0.476 µM, respectively. In addition, the TGI was 3.13 µM with A549 NSCLC; 1.06 µM in the experiment on LOX IMVI melanoma; 5.25 µM in the experiment with MDA-MB-231 breast; 2.49 µM in the experiment on NCI-H460 lung; 1.6 µM in the experiment with SF-539 CNS; 3.07 µM with SK-MEL-28 melanoma. Besides, the TGI stood at 2.92 µM with SNB-75 CNS and 1.75 µM in the experiment with UACC-257 melanoma.
Take `O=C(Sc1sc(=S)sc1SC(=O)c1ccccc1)c1ccccc1`: the TGI with A549 NSCLC is 70.6 µM; in the experiment on DMS 114 small cell lung, over 100 µM; in the experiment with M19-MEL melanoma, 51 µM; with SF-539 CNS it was over 100 µM; in the experiment on SK-MEL-28 melanoma, over 100 µM; with SNB-75 CNS, 78.3 µM. The TGI with UACC-257 melanoma was over 100 µM.
On to `COC(=O)C(=O)C(CC(=O)Nc1cccc(C(F)(F)F)c1)C(=O)OC` (centres undefined), for which the TGI in the experiment on A549 NSCLC, in the experiment with DMS 114 small cell lung, in the experiment on LOX IMVI melanoma, with M19-MEL melanoma, in the experiment on NCI-H460 lung and with SF-539 CNS was over 100 µM each time. In addition, the TGI in the experiment on SK-MEL-28 melanoma and in the experiment on SNB-75 CNS was over 100 µM in each case.
As to `NC(CO)C(=O)NCC(=O)O` (centres undefined), the TGI in the experiment on A549 NSCLC, in the experiment on LOX IMVI melanoma, in the experiment with MDA-MB-231 breast, in the experiment with NCI-H460 lung, in the experiment with SF-539 CNS and with SK-MEL-28 melanoma was over 100 µM in each case. The TGI with SNB-75 CNS and in the experiment on UACC-257 melanoma was over 100 µM throughout.
